Measured values as given in PubChem BioAssay (NCI).
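Five concentrations, 48 hours, 96-well plates. Definition used: TGI = concentration required for complete inhibition of growth.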

Legend:
Experiment in all cases: NCI tumour cell line growth inhibition, 48 h
SK-MEL-28 melanoma = tested on: SK-MEL-28 melanoma
HOP-62 NSCLC = tested on: HOP-62 NSCLC
SF-295 CNS = tested on: SF-295 CNS
HS 578T breast = tested on: HS 578T breast
OVCAR-8 ovarian = tested on: OVCAR-8 ovarian
U251 CNS = tested on: U251 CNS
SK-MEL-2 melanoma = tested on: SK-MEL-2 melanoma
EKVX NSCLC = tested on: EKVX NSCLC
UO-31 renal = tested on: UO-31 renal
DU-145 prostate = tested on: DU-145 prostate
ACHN renal = tested on: ACHN renal
RPMI-8226 leukemia = tested on: RPMI-8226 leukemia
NCI-H23 lung = tested on: NCI-H23 lung
NCI/ADR-RES ovarian = tested on: NCI/ADR-RES ovarian
HT29 colon = tested on: HT29 colon
PC-3 prostate = tested on: PC-3 prostate
LOX IMVI melanoma = tested on: LOX IMVI melanoma
COLO 205 colon = tested on: COLO 205 colon
NCI-H460 lung = tested on: NCI-H460 lung
HCT-116 colon = tested on: HCT-116 colon
MCF7 breast = tested on: MCF7 breast
CCRF-CEM leukemia = tested on: CCRF-CEM leukemia
A498 renal = tested on: A498 renal
OVCAR-3 ovarian = tested on: OVCAR-3 ovarian
SF-539 CNS = tested on: SF-539 CNS
HCT-15 colon = tested on: HCT-15 colon
SR leukemia = tested on: SR leukemia
TK-10 renal = tested on: TK-10 renal
MDA-N = tested on: MDA-N
UACC-257 melanoma = tested on: UACC-257 melanoma
SW-620 colon = tested on: SW-620 colon
SNB-75 CNS = tested on: SNB-75 CNS
MDA-MB-231 breast = tested on: MDA-MB-231 breast
SF-268 CNS = tested on: SF-268 CNS
CAKI-1 renal = tested on: CAKI-1 renal
KM12 colon = tested on: KM12 colon
MOLT-4 leukemia = tested on: MOLT-4 leukemia
OVCAR-4 ovarian = tested on: OVCAR-4 ovarian
OVCAR-5 ovarian = tested on: OVCAR-5 ovarian
SK-MEL-5 melanoma = tested on: SK-MEL-5 melanoma
SN12C renal = tested on: SN12C renal
A549 NSCLC = tested on: A549 NSCLC
MALME-3M melanoma = tested on: MALME-3M melanoma
786-0 renal = tested on: 786-0 renal
T-47D breast = tested on: T-47D breast
IGROV1 ovarian = tested on: IGROV1 ovarian
SK-OV-3 ovarian = tested on: SK-OV-3 ovarian
SNB-19 CNS = tested on: SNB-19 CNS
HL-60(TB) leukemia = tested on: HL-60(TB) leukemia
K-562 leukemia = tested on: K-562 leukemia
NCI-H522 lung = tested on: NCI-H522 lung
MDA-MB-435 = tested on: MDA-MB-435
HCC-2998 colon = tested on: HCC-2998 colon
UACC-62 melanoma = tested on: UACC-62 melanoma
M14 melanoma = tested on: M14 melanoma
RXF 393 renal = tested on: RXF 393 renal
NCI-H226 lung = tested on: NCI-H226 lung
BT-549 breast = tested on: BT-549 breast
HOP-92 NSCLC = tested on: HOP-92 NSCLC

Measured: TGI

CCOC(=O)c1ccc(NC(=O)O/N=C(/Cl)CCl)cc1
68.7 µM: HL-60(TB) leukemia
76 µM: MCF7 breast
not listed: NCI-H522 lung | MDA-MB-435 | HCC-2998 colon | UACC-62 melanoma | M14 melanoma | RXF 393 renal | NCI-H226 lung | BT-549 breast | HOP-92 NSCLC
> 100 µM: all other assays above

CN(C)/C=N/n1c2ccccc2c2ccccc21
75.8 µM: CAKI-1 renal
not listed: BT-549 breast | HOP-92 NSCLC
> 100 µM: all other assays above

CC(/C=N\NC(=S)N1CCCCC1)=N/NC(=S)N1CCCCC1
14.7 µM: HS 578T breast | SW-620 colon
21.8 µM: OVCAR-5 ovarian
6.36 µM: SK-MEL-2 melanoma
14.8 µM: EKVX NSCLC
14.9 µM: MALME-3M melanoma
6.9 µM: NCI/ADR-RES ovarian
6.19 µM: HCT-116 colon
7.16 µM: ACHN renal
10.7 µM: CAKI-1 renal
35.7 µM: SNB-19 CNS
13.2 µM: 786-0 renal
13 µM: U251 CNS
5.12 µM: OVCAR-3 ovarian
> 100 µM: RPMI-8226 leukemia | LOX IMVI melanoma | SF-539 CNS | MOLT-4 leukemia | K-562 leukemia
17.5 µM: MDA-MB-435
15.4 µM: UACC-257 melanoma
10.8 µM: SN12C renal
19.5 µM: HCT-15 colon
5.85 µM: COLO 205 colon
4.28 µM: RXF 393 renal
11.8 µM: TK-10 renal
8.3 µM: IGROV1 ovarian
18.1 µM: SK-MEL-28 melanoma
3.59 µM: A498 renal
11.7 µM: HCC-2998 colon
6.08 µM: SK-OV-3 ovarian
5.51 µM: M14 melanoma
9.76 µM: NCI-H460 lung
18.5 µM: A549 NSCLC
62.4 µM: HT29 colon
11 µM: HOP-62 NSCLC
11.9 µM: PC-3 prostate
4.58 µM: DU-145 prostate
7.19 µM: UO-31 renal
5.94 µM: UACC-62 melanoma
3.86 µM: SK-MEL-5 melanoma
15.8 µM: OVCAR-4 ovarian
11.1 µM: MDA-MB-231 breast
14.6 µM: SF-268 CNS
13.7 µM: KM12 colon
13.4 µM: BT-549 breast
16.1 µM: OVCAR-8 ovarian
19.2 µM: NCI-H23 lung
8.08 µM: SNB-75 CNS
14.4 µM: SF-295 CNS
2.6 µM: NCI-H226 lung
12.1 µM: MDA-N
> 45.8 µM: MCF7 breast
7.48 µM: HOP-92 NSCLC
5.68 µM: NCI-H522 lung

O=c1c2ccccc2sc2cccc(NCCCN3CCN(CCCNc4cccc5sc6ccccc6c(=O)c45)CC3)c12
not listed: OVCAR-8 ovarian | BT-549 breast | HOP-92 NSCLC
> 100 µM: all other assays above
